Structures are written as SMILES. Activity calls are given as the source filed them. The calls are words filed in the database; no cut-off is given here.

The target of test [1] is Histone deacetylase 5 (Homo sapiens) (UniProt Q9UQL6). The experiment in a line: Inhibition of HDAC5 (unknown origin) assessed as residual activity at 4.12 x 10^-8M (reference value: 100%). The conditions noted are these: dose 4.12 10^-8M.
In test [2] the target is T1, Histone deacetylase 3 (Homo sapiens, UniProt O15379). In words: Inhibition of HDAC3 (unknown origin) using p53 residues 379 to 382 [RHKK(Ac)] as fluorogenic substrate assessed as residual activity at 3.70 x 10^-7M (reference value: 103.08%). As to conditions: dose 3.7 10^-7M.
Test [3] has as its target Histone deacetylase 5 (Homo sapiens) (UniProt Q9UQL6). The experiment in a line: Inhibition of HDAC5 (unknown origin) assessed as residual activity at 3.33 x 10^-6M (reference value: 100%). As to conditions: dose 3.33 10^-6M.
Test [4] has as its target T2, Polyamine deacetylase HDAC10 (Homo sapiens) (UniProt Q969S8).
T2 sequence (whole entry): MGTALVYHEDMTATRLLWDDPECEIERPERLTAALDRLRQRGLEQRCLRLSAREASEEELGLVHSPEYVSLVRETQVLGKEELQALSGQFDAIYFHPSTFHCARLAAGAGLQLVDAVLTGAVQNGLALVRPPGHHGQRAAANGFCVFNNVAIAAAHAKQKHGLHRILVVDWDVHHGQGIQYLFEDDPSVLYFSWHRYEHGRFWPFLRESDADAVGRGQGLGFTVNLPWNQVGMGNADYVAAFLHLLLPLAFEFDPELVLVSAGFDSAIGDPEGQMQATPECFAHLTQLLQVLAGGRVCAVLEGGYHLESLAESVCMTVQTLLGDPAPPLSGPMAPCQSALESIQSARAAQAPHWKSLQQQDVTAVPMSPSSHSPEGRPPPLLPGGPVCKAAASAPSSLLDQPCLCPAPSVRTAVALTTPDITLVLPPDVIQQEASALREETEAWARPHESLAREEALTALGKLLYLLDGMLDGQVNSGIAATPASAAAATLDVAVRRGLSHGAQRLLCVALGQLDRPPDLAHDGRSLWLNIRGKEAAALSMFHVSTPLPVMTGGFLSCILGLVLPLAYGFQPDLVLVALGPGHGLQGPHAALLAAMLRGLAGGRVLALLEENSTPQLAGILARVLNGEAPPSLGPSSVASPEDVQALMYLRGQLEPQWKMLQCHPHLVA
The experiment in a line: Inhibition of HDAC10 (unknown origin) assessed as residual activity at 1.37 x 10^-8M (reference value: 101.54%). The conditions noted are these: dose 1.37 10^-8M.

The target of test [5] is T3, Protein deacetylase HDAC6 (Homo sapiens) (UniProt Q9UBN7).
T3 sequence (whole entry): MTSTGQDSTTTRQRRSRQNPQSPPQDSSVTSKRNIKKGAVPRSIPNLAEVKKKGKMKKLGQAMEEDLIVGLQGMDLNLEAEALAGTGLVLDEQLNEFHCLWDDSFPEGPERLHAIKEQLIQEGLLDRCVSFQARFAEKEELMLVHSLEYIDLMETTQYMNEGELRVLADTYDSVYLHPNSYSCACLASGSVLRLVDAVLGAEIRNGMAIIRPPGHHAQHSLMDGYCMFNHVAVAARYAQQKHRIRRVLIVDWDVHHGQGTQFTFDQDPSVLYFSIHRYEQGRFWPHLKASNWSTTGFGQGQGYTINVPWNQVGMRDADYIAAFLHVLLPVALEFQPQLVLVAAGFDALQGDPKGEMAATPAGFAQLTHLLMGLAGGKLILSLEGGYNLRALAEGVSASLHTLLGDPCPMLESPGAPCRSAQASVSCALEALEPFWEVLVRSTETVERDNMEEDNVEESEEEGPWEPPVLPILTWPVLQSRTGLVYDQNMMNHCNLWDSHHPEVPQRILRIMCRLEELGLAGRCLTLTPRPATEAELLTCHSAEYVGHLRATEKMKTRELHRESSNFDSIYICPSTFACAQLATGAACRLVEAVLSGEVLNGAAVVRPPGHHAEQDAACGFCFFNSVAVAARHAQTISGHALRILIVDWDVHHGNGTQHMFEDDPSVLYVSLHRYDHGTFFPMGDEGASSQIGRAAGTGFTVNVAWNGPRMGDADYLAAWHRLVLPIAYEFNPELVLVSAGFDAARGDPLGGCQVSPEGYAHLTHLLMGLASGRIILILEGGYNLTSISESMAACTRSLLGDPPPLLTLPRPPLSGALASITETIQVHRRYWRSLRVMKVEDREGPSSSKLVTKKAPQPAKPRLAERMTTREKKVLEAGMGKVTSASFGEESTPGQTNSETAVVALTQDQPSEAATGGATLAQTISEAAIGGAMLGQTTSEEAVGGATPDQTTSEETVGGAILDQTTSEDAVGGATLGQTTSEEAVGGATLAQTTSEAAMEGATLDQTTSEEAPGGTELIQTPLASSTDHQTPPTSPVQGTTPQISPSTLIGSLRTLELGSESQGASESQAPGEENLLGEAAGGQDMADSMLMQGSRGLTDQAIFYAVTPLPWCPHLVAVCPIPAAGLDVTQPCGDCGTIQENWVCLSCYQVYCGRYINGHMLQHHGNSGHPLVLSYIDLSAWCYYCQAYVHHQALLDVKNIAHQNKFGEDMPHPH
The experiment in a line: Inhibition of HDAC6 (unknown origin) using p53 residues 379 to 382 [RHKK(Ac)] as fluorogenic substrate assessed as residual activity at 3.33 x 10^-6M (reference value: 101.06%). As to conditions: dose 3.33 10^-6M.

Test [6] deals with HL-60. The experiment in a line: Induction of apoptosis in human HL-60 cells assessed as cell shrinkage at 0.5 to 1 times IC50 by DAPI staining based microscopic analysis. It counts as functional.
Test [7] concerns the target Histone deacetylase 9 (Homo sapiens) (UniProt Q9UKV0). In words: Inhibition of HDAC9 (unknown origin) assessed as residual activity at 3.70 x 10^-7M (reference value: 97.55%). The conditions noted are these: dose 3.7 10^-7M.
Test [8] has as its system HL-60. In words: Induction of cell cycle arrest in G0/G1 phase in human HL-60 cells assessed as downregulation of cyclin D1 protein expression at 0.5 to 1 times IC50 by Western blot analysis. It counts as functional, cell-based. A general note: In western blotting, separated proteins are transferred to a membrane and probed.
The next test concerns the target Histone deacetylase 2 (Homo sapiens, UniProt Q92769). The experiment in a line: Inhibition of HDAC2 (unknown origin) assessed as residual activity at 1.52 x 10^-9M (reference value: 99.81%). The conditions noted are these: dose 1.52 10^-9M.
Test [9] concerns the target Histone deacetylase 5 (Homo sapiens) (UniProt Q9UQL6). In words: Inhibition of HDAC5 (unknown origin) assessed as residual activity at 1.1 x 10^-6M (reference value: 100%). The conditions noted are these: dose 1.1 10^-6M.
Test [10] deals with T3, Protein deacetylase HDAC6 (Homo sapiens). In words: Inhibition of HDAC6 (unknown origin) using p53 residues 379 to 382 [RHKK(Ac)] as fluorogenic substrate assessed as residual activity at 3.70 x 10^-7M (reference value: 101.06%). The conditions noted are these: dose 3.7 10^-7M.
Test [11] has as its system HL-60. The experiment in a line: Induction of apoptosis in human HL-60 cells assessed as DNA fragmentation at 0.5 to 1 times IC50 by DAPI staining based microscopic analysis. It counts as functional, cell-based.
Test [12] deals with T1, Histone deacetylase 3. The experiment in a line: Inhibition of HDAC3 (unknown origin) using p53 residues 379 to 382 [RHKK(Ac)] as fluorogenic substrate assessed as residual activity at 1.37 x 10^-8M (reference value: 103.08%). The conditions noted are these: dose 1.37 10^-8M.

Chain of Histone deacetylase 5 (Homo sapiens) (Q9UQL6 whole entry, the tested form may be a part): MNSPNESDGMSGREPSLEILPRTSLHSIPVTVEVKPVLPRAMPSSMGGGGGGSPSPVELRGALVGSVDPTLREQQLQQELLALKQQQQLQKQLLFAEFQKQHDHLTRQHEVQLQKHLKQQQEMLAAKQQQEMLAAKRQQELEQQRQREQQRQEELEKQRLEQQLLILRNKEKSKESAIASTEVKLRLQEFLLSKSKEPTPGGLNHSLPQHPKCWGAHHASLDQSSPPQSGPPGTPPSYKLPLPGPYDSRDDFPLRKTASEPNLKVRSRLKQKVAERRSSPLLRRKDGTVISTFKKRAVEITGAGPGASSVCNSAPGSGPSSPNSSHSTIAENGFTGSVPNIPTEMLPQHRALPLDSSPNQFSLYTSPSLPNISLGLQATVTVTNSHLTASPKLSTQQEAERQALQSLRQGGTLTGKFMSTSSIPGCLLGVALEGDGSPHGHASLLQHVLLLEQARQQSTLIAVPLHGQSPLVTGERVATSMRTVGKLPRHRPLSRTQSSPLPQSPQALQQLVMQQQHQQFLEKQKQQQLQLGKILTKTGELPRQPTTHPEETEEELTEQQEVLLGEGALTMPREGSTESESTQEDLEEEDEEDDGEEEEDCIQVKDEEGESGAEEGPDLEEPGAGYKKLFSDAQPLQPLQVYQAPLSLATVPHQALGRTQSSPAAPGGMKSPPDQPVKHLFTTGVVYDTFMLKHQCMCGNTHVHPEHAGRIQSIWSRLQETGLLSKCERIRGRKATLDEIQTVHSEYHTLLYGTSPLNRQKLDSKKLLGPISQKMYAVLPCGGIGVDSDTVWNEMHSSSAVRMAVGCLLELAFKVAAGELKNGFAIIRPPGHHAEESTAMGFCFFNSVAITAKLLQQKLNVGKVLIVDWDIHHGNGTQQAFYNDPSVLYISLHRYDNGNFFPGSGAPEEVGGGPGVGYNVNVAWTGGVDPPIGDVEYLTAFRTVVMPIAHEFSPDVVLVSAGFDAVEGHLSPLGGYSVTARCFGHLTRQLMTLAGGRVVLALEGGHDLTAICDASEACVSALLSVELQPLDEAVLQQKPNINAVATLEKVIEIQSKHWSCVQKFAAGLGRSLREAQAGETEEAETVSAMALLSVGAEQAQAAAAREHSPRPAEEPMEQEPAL
T1 sequence (O15379 whole entry, the tested form may be a part): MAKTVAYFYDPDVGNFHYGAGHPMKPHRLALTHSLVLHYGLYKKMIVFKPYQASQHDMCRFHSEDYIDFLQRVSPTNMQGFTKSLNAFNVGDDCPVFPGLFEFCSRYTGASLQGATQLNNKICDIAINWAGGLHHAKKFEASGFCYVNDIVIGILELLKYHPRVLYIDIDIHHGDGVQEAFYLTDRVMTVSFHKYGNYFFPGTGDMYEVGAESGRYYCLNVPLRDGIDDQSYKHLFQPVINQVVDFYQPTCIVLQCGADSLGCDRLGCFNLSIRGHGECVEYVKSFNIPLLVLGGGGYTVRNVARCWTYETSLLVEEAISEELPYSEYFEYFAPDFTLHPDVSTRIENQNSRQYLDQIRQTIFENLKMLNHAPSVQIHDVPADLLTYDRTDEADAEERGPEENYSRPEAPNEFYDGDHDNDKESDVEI
Chain of Histone deacetylase 9 (Homo sapiens) (Q9UKV0 whole entry): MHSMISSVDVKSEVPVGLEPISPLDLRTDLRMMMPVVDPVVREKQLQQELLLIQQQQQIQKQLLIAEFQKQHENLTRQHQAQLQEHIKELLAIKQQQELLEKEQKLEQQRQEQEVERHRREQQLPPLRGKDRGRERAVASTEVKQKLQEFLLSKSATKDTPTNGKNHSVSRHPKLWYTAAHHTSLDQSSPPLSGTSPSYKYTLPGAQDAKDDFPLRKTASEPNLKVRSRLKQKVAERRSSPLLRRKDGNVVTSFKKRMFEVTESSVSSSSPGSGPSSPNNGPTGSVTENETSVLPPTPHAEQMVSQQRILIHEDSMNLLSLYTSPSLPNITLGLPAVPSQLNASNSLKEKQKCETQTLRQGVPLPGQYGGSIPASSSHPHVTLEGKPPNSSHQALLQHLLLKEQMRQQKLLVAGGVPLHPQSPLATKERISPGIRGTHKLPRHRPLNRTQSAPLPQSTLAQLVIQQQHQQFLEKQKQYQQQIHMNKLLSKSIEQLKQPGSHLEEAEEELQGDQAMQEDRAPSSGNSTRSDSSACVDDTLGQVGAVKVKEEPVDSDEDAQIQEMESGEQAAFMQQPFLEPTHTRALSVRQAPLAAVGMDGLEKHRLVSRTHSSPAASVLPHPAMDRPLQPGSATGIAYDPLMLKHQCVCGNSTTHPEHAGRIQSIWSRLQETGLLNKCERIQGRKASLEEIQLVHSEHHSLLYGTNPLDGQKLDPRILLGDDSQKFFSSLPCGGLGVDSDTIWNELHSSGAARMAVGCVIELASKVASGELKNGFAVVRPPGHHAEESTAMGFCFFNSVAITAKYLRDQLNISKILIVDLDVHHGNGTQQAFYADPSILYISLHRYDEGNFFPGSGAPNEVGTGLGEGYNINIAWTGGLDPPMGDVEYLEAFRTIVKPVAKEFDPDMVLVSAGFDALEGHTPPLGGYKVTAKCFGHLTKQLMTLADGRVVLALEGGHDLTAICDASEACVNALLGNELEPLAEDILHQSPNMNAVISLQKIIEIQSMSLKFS
Chain of Histone deacetylase 2 (Q92769 whole entry): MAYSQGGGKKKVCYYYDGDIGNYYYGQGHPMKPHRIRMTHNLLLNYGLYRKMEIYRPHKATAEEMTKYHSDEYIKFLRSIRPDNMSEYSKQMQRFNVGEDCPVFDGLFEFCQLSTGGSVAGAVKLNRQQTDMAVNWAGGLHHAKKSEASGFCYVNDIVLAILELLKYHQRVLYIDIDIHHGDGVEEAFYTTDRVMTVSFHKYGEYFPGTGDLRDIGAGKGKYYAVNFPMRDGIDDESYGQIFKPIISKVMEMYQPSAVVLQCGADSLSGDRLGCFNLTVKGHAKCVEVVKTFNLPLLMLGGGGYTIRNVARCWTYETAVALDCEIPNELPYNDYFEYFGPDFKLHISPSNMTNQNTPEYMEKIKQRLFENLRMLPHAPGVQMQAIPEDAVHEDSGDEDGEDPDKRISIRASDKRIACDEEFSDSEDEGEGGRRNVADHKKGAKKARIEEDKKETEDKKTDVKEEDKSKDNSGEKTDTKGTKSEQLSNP

As for `NC(=O)c1cccc2[nH]c(-c3ccc(NCc4ccc(C(=O)Nc5ccccc5N)cc4)cc3)nc12`, the Activity in test [1] is 93.1%; at Histone deacetylase 3 [2], 54.9%; in [3], 85.7%; in [4], 97.7%; in test [5], 105%; in test [7], 92.6%. The Activity was found to be 98.2% at Histone deacetylase 2, 93% in [9], 101% in test [10] and 110% on Histone deacetylase 3 [12]. Moreover, the outcome in the test with HL-60 [6] and in the test with HL-60 [11] was inactive. In the test with HL-60 [8], the outcome was Active.

Values taken from ChEMBL document CHEMBL5550160, “Leveraging a rationally designed veliparib-based anilide eliciting anti-leukemic effects for the design of pH-responsive polymer nanoformulation” (Eur J Med Chem, 2024).
